# Patent publication US4443459A, “α-Tocopheryl ester of 5-substituted picolinic acid and hypotensive composition containing it” (Banyu Pharmaceutical Co., Ltd., priority 1981, dated 1984)
# Key:
# [1] = tested on: Spontaneous hypertensive rats; assay: Hypotensive action in spontaneous hypertensive rats, oral (tail artery pressure, plethysmography; Table 1); format: in vivo, rat (spontaneous hypertensive, male); settings: spontaneous hypertensive rats
# Text: (§1) dl-α-tocopheryl 5-butylpicolinate and dl-α-tocopherol were used after they were each dissolved in a suitable amount of ethyl ether, mixed with a solution containing 2% of Tween 80 and 2% of Span 40 and after removing ethyl ether, uniformly emulsified. 5-Butylpicolinic acid was used as a solution in 2% Tween 80+2% Span.
# (§2) Spontaneous hypertensive rats (male, body weight 350 to 370 g) and Wistar rats with a normal blood pressure level (female, body weight 250 to270 g), three per group, were used. Without anesthesia, the pressure of the tail artery was measured by plethysmography.
# [2] = tested on: stomach of rats; assay: Side-effects: gastric trouble after oral administration for 4 consecutive days; format: in vivo, rat; settings: 100 mg/kg
# Method: dl-α-Tocopheryl 5-butylpicolinate of the invention and 5-butylpicolinic acid as a control were administered orally to rats for 4 consecutive days at a dose of 300 mg/kg (90.9 mg/kg calculated for 5-butylpicolinic acid) and 100 mg/kg. Then, the stomach of each rat was incised and observed for the occurrence of a gastric trouble.
# [3] = in vivo; settings: mouse
# Method: ddY-Strain female mice (body weight about 20 g), five per group, were used and each of the test compounds was orally or intraperitoneally administered, and two days after the administration, the number of dead mice was counted. From it, the acute toxicity LD50 of each of the compounds was determined by the Behrens-Kraerber method.
# [4] = tested on: Normotensive Wistar rats; assay: Hypotensive action in normotensive Wistar rats, oral (tail artery pressure, plethysmography; Table 2); format: in vivo, rat (Wistar, female); settings: 50 mg/kg oral, normotensive Wistar rats
# Text: as §1, §2
smiles,measurement,setting,value
"CCCCc1ccc(C(=O)O)nc1 [B, 5-butylpicolinic acid, reference compound]","Blood pressure lowering rate, 1h",[1]; 3.125 mg/kg oral,16.9%
same,"Blood pressure lowering rate, 2h",[1]; 3.125 mg/kg oral,0.7%
same,"Blood pressure lowering rate, 3h",[1]; 3.125 mg/kg oral,0%
same,"Blood pressure lowering rate, 4h",[1]; 3.125 mg/kg oral,0%
same,"Blood pressure lowering rate, 1h",[1]; 12.5 mg/kg oral,35.7%
same,"Blood pressure lowering rate, 2h",[1]; 12.5 mg/kg oral,21.7%
same,"Blood pressure lowering rate, 3h",[1]; 12.5 mg/kg oral,11.8%
same,"Blood pressure lowering rate, 4h",[1]; 12.5 mg/kg oral,0%
same,occurrence of gastric trouble,[2],"Light degrees of edema, congestion, or bleeding were noted in the stomachs of all cases (five rats)"
same,LD50 at 48 h,[3]; ip,89 mg/kg
same,LD50 at 48 h,[3]; po,180 mg/kg
same,"Blood pressure lowering rate, 1h",[4]; 1h,27.0%
same,"Blood pressure lowering rate, 2h",[4]; 2h,33.5%
same,"Blood pressure lowering rate, 3h",[4]; 3h,26.2%
same,"Blood pressure lowering rate, 4h",[4]; 4h,0%
